Experiment [1] deals with LPS (TLR4)-induced signaling in human monocytes (primary CD14+). As to the kind of experiment: LPS (TLR4)-induced signaling, western blot. The class given is cell-based. The following applies: western blot; for formation of p-IKK, p-ERK and p-p38 induced by LPS: 20 min pretreatment, 15 min activation with 100 ng/ml LPS. The protocol:
(§1) Venous blood samples were obtained from healthy male donors in compliance with the Institutional Review Board at the Sheba Medical Center, Ramat Gan, Israel. PBMCs were isolated on Ficoll-Paque PLUS (GE Healthcare, Uppsala, Sweden) using 50 ml Leucosep tubes (Greiner Bio-One, Frickenhausen, Germany). Cells were washed in PBS (Kibbutz Beit Haemek, Israel) and incubated at 4° C. for 15 minutes in a buffer containing PBS and 0.5% bovine serum albumin (BSA) with human CD14 microbeads (Miltenyi Biotec, Bergisch Gladbach, Germany).
(§2) Cells (10^6/ml) were pretreated for 20 min with VB-201 (1-hexadecyl-2-(4′-carboxy)butyl-glycero-3-phosphocholine or 1-hexadecyl-2-(4′-carboxybutyl)-glycerol-3-phosphocholine) or VB-701 at the doses indicated in FIG. 2, or with solvent (Sol), followed by 15 min activation with 100 ng/ml lipopolysaccharide (LPS) or were untreated (Unt). Cells were washed and resuspended in lysis buffer containing 1:100 dithiothreitol (DTT), phosphatase and protease inhibitors (Thermo Scientific). Samples were loaded onto a precast Criterion TGX gel (Bio-Rad, Hemel Hempstead, UK) and transferred onto nitrocellulose membrane. Blots were blocked with 5% milk or BSA in Tris buffered saline and Tween 20 (TBST) for 1 h, followed by incubation with primary and secondary antibodies. Membranes were developed using an ECL kit (Thermo Scientific). The following antibodies were used for immunoblotting:
Primary antibodies: p-p38 (Cat. No. 4511; 1:1000) and p-IKK (Cat. No. 2697; 1:1000) were from Cell Signaling Technology (Danvers, Mass., USA). p-ERK1/2 (Cat. No. M8159; 1:10000) was purchased from Sigma (Israel). αTubulin (Tub) served as a loading control.
(§3) Secondary antibodies: HRP donkey anti-rabbit (1:5000) and HRP goat anti-mouse (1:3000) were from Jackson ImmunoResearch (West Grove, Pa., USA). HRP donkey anti-goat (1:5000) was from Santa Cruz Biotechnology.
as §2, with “VB-201” for “VB-201 (1-hexadecyl-2-(4′-carboxy)butyl-glycero-3-phosphocholine”, “VB-703” for “1-hexadecyl-2-(4′-carboxybutyl)-glycerol-3-phosphocholine) or VB-701 at the doses indicated in FIG. 2, or with solvent (Sol),”, “LPS.” for “lipopolysaccharide (LPS) or were untreated (Unt).”
Primary antibodies: p-p38 (Cat. No. 4511; 1:1000) and p-IKK (Cat. No. 2697; 1:1000) were from Cell Signaling Technology (Danvers, Mass., USA). p-ERK1/2 (Cat. No. M8159; 1:10000) was purchased from Sigma (Israel). Heat shock protein (HSP) 90 (Cat. No. 13119; 1:500) was from Santa Cruz Biotechnology (Santa Cruz, Calif., USA).

Experiment [2] deals with PGN (TLR2)-induced signaling in human monocytes (THP-1 cell line). As to the kind of experiment: PGN (TLR2)-induced signaling, western blot. The following applies: 20 min pretreatment, 20 μg/ml PGN for 15 minutes. Type of experiment: cell-based. The protocol:
The monocytic THP-1 cell line was purchased from the American Type Tissue Culture Collection (ATCC Cat. No. TIB-202). Cells (10^6/ml) were pretreated for 20 min with VB-201 or VB-701 at the doses indicated in FIG. 3, or with solvent, followed by activation with 20 μg/ml peptidoglycan (PGN) (InvivoGen, San Diego, Calif.) for 15 minutes, or were untreated (“Unt”). Cells were washed and resuspended in lysis buffer containing 1:100 dithiothreitol (DTT), phosphatase and protease inhibitors (Thermo Scientific). Samples were loaded onto a precast Criterion TGX gel (Bio-Rad, Hemel Hempstead, UK) and transferred onto nitrocellulose membrane. Blots were blocked with 5% milk or BSA in Tris buffered saline and Tween 20 (TBST) for 1 h, followed by incubation with primary and secondary antibodies. Membranes were developed using an ECL kit (Thermo Scientific). The following antibodies were used for immunoblotting:
Primary antibodies: p-p38 (Cat. No. 4511; 1:1000) and p-IKK (Cat. No. 2697; 1:1000) were from Cell Signaling Technology (Danvers, Mass., USA). p-ERK1/2 (Cat. No. M8159; 1:10000) was purchased from Sigma (Israel). αTubulin served as a loading control.
as §3

In experiment [3] the test system is MCP-1-induced signaling in human monocytes (THP-1 cell line). Nature of the experiment: MCP-1-induced signaling, western blot. The settings on record: 20 min pretreatment, 50 ng/ml MCP1, THP-1. Type of experiment: cell-based. The protocol:
THP-1 cells (10^6/ml) were pretreated for 20 min with VB-201 or VB-701 at the doses indicated in FIG. 4, or with solvent, followed by activation with 50 ng/ml MCP1, or were untreated (“Unt”). Cells were washed and resuspended in lysis buffer containing 1:100 dithiothreitol (DTT), phosphatase and protease inhibitors (Thermo Scientific). Samples were loaded onto a precast Criterion TGX gel (Bio-Rad, Hemel Hempstead, UK) and transferred onto nitrocellulose membrane. Blots were blocked with 5% milk or BSA in Tris buffered saline and Tween 20 (TBST) for 1 h, followed by incubation with primary and secondary antibodies. Membranes were developed using an ECL kit (Thermo Scientific). The following antibodies were used for immunoblotting:
Primary antibodies: p-ERK1/2 (Cat. No. M8159; 1:10000) was purchased from Sigma (Israel). p-AKT (Cat. No. 4060; 1:1000) was purchased from Cell Signaling Technology (Danvers, Mass.). αTubulin served as a loading control and was purchased from Sigma (Israel).
as §3

The subject of experiment [4] is human monocytes (primary CD14+). As to the kind of experiment: Chemokine-induced cell migration trans-well assay. The class given is cell-based. The settings on record: RANTES 100 ng/ml and MCP-1 50 ng/ml, 2-4 hours, FACS count. The protocol:
as §1
Cells (10^6/ml) were pretreated for 20 min with VB-201 or VB-701 at the doses indicated in FIG. 5, or with solvent (Sol).
To test for chemokine-induced cell migration, RANTES (100 ng/ml; Cat. No. 300-06, PeproTech, Israel) and MCP-1 (50 ng/ml; Cat. No. 300-04, PeproTech, Israel) were dissolved in RPMI-1640 medium supplemented with 0.5% fetal bovine serum (FBS) and placed at the lower chamber of QCM 24-well, […], migration assay plates (Corning-Costar, Corning, N.Y.). Cells (3×10^5) were seeded in the upper chamber and incubated for 2-4 hours. Subsequently, the number of cells which migrated to the lower compartment was determined by fluorescence-activated cell sorting (FACS).

Experiment [5] concerns LPS (TLR4)-stimulated human monocytes (primary CD14+). As to the kind of experiment: IL-12/23p40 ELISA, LPS (TLR4)-stimulated monocytes. Type of experiment: cell-based. The settings on record: 1 hour pretreatment, 24 hour 100 ng/ml LPS, ELISA of supernatant. The protocol: (§4) Human monocytes were obtained as described in Example 9 and FIG. 9A-9B. Human monocytes were seeded (10^6/ml) and pretreated for 1 hour with VB-201, VB-701 or VB-702, followed by 24 hour activation with 100 ng/ml LPS from Escherichia coli strain 055:B5 (Sigma, Israel) (FIG. 9A) or 300 ng/ml Pam3CSK4 (InvivoGen, San Diego, Calif., USA) (FIG. 9B) to induce cytokine production. IL-12/23p40 concentration in the supernatant was then measured by ELISA (R&D systems, Cat. No. DY1240). Cells activated with solvent (0.5% ethanol in PBS) were used as a control.

Experiment [6] deals with Pam3CSK4 (TLR2)-stimulated human monocytes (primary CD14+). Nature of the experiment: IL-12/23p40 ELISA, Pam3CSK4 (TLR2)-stimulated monocytes. Type of experiment: cell-based. The settings on record: 1 hour pretreatment, 24 hour 300 ng/ml Pam3CSK4, ELISA of supernatant. The protocol: as §4
Experiment [7] concerns RANTES-induced signaling in human monocytes (primary CD14+). Nature of the experiment: RANTES-induced signaling, western blot. The settings on record: RANTES 100 ng/ml for 15 minutes. The class given is cell-based. The protocol: as §2
Human monocytes were obtained, treated and analyzed by western blot as described in Example 9 and FIG. 7, except that cells were induced with RANTES (100 ng/ml; Cat. No. 300-06, PeproTech, Israel) for 15 minutes. […] Accordingly, VB-702 and VB-201 inhibit RANTES-induced signaling in human monocytes (primary CD14+).

In the next experiment the target is T1, TLR4 complex (Homo sapiens, UniProt O00206+Q9Y6Y9).
T1 construct: endogenous in cells; probably the human primary monocytes of b454
T1 sequence (O00206 24-839): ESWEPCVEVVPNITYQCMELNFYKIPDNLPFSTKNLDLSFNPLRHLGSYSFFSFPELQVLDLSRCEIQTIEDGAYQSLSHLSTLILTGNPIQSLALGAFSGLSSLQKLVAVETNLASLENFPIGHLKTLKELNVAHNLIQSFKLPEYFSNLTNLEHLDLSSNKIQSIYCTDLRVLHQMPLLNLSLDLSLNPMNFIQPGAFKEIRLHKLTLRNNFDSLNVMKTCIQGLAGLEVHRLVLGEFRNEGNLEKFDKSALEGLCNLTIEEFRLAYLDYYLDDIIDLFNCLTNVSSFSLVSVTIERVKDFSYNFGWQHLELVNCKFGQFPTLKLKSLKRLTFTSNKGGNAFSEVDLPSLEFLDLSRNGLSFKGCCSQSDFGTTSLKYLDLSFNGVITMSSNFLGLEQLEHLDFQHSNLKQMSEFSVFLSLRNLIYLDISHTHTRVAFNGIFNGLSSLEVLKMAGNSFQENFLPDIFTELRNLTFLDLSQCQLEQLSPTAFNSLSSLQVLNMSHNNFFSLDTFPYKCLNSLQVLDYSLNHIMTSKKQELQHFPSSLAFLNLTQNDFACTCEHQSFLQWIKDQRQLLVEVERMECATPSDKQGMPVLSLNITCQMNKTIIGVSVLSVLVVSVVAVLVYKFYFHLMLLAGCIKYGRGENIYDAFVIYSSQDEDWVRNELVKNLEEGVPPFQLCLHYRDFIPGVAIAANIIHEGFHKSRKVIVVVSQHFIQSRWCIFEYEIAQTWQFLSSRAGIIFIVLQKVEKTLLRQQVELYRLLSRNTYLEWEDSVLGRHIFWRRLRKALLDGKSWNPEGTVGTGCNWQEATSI
T1 sequence (Q9Y6Y9 17-160 limits assumed): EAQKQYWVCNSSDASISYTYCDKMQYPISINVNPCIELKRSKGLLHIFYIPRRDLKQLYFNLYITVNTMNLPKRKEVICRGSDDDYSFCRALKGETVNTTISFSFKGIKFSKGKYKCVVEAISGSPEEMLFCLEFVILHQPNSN
Nature of the experiment: LPS binding inhibition assay (biotin-LPS, FACS). The following applies: biotin-LPS 100 ng/ml, FACS. The protocol:
To assess interference with lipopolysaccharide (LPS) binding, VB-201 or VB-703 were incubated for 20 min with cells (10^6/ml) after which 100 ng/ml of biotin-LPS (InvivoGen) was added for an additional 15 minutes, all at 4° C. Cells were washed, resuspended in FACS buffer and analyzed on a FACS-Calibur device.

Experiment [8] relates to human monocytes (THP-1 cell line). As to the kind of experiment: SDF1-induced cell migration trans-well assay. The class given is cell-based. The settings on record: 5 μg/ml, 20 min pretreatment.

`CCCCCCCCCCCCCCCCOCC(COP(=O)([O-])OCC[n+]1ccccc1)OCCCCC(=O)O` (centres unmarked) [VB-701, 1-hexadecyl-2-(4′-carboxy)butyl-glycero-sn-3-phosphoric acid pyridiniumethyl ester]: in [1], the “formation of p-IKK, p-ERK and p-p38 induced by LPS” value is given as “inhibit”. The “formation of p-IKK, p-ERK and p-p38 induced by PGN” value in experiment [2] was “inhibit”. For the same compound, the “formation of p-AKT and p-ERK induced by MCP1” value in experiment [3] is listed as “inhibit”. Also, the “chemokine-induced migration of human monocytes” value in experiment [4] is listed as “inhibit”. For the same compound, in experiment [5], the “IL-12p40 levels, LPS (TLR4)-stimulated” value is listed as “inhibit”. Also, the “IL-12p40 levels, Pam3CSK4 (TLR2)-stimulated” value in [6] is reported as “inhibit”.

For the compound `CCCCCCCCCCCCCCCCCCCCOCC(COP(=O)([O-])OCC[n+]1ccccc1)OCCCCC(=O)O` (centres unmarked) [VB-702, 1-eicosanyl-2-(4′-carboxy)butyl-glycero-sn-3-phosphoric acid pyridiniumethyl ester], in [1], the “formation of p-IKK, p-ERK and p-p38 induced by LPS” value is reported as “inhibit”. In experiment [4], the “chemokine-induced migration of human monocytes” value is “inhibit”. Moreover, the “formation of p-ERK induced by RANTES” value in experiment [7] is recorded as “inhibit”. Besides, the “IL-12p40 levels, LPS (TLR4)-stimulated” value in [5] is on record as “inhibit”. For the same compound, in [6], the “IL-12p40 levels, Pam3CSK4 (TLR2)-stimulated” value was “inhibit”.

As to `CCCCCCCCCCC(CCCCCCCC)COCC(COP(=O)([O-])OCC[n+]1ccccc1)OCCCCC(=O)OC` (centres unmarked) [VB-705, 1-(2′-octyl)dodecyl-2-(4′-carboxymethyl)butyl-glycero-sn-3-phosphoric acid pyridiniumethyl ester], the “formation of p-ERK and p-AKT induced by LPS” value in experiment [1] (LPS activation) is “inhibit”. The “LPS-biotin binding to human monocytes (primary CD14+)” value at TLR4 complex is “inhibits”. In addition, the “SDF1-induced migration of human monocytes (THP-1 cell line)” value in [8] is “does not inhibit”.

The values are drawn from patent US10464957B2, “Oxidized lipids and methods of use thereof” (Vascular Biogenics Ltd., priority 2014, dated 2019).
